Assay: Pharmacokinetics of KRP-101 in plasma after oral or intravenous administration
Assay type: in vivo
Conditions: male Beagle dog, intravenous, 0.5 mg/kg
Description: To a male Beagle dog, one tablet of the film-coated tablets obtained in Example 1 was administered orally or 0.5 mg/kg of KRP-101 were administered intravenously, and the concentration of KRP-101in plasma was measured until 24 hours after administration.

AUC (Total area under concentration-time curve): 1354 ng·h/mL | half-life (plasma, read-out: T½ (Elimination half-life) (converted)): 2.2 h
SMILES: CC[C@@H](Cc1ccc(OC)c(C(=O)NCc2ccc(Oc3ccc(F)cc3)cc2)c1)C(=O)O [KRP-101, (S)-2-[3-[N-[4-(4-fluorophenoxy)benzyl]carbamoyl]-4-methoxybenzyl]butanoic acid]
